This assay concerns AKT protein phosphorylated on serine 473 (P-AKT-S473) in PC3 human prostate carcinoma cells. The experiment in a line: pAKT expression in PC3 human prostate carcinoma cells, MSD Multi-spot Biomarker detection (Test A). It counts as cell-based. The note with it: 1 to 2 h incubation, P-AKT-S473, absolute IC50, mean of two independent experiments. Put shortly:
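Lysate pAKT-S473 measured by electrochemiluminescent sandwich immunoassay; inhibition versus cell-free background and DMSO-only wells, IC50 averaged over two experiments.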

What is called IC50 is the concentration that inhibits the measured activity by half. Read a high IC50 as lower potency.

`O=C(Cc1nc(N2CCOCC2)cc(=O)[nH]1)N1CCc2c(OC(F)(F)F)cccc21` [Example 3d, 6-(morpholin-4-yl)-2-{2-oxo-2-[4-(trifluoromethoxy)-2,3-dihydro-1H-indol-1-yl]ethyl}pyrimidin-4(3H)-one] came in with an IC50 (Homo sapiens, PC-3, PC3 cells) of 54 nM. `C[C@@H]1Cc2ccccc2N1C(=O)Cc1nc(N2CCOCC2)cc(=S)[nH]1` [Example 3e, 1-((R)-2-methyl-2,3-dihydroindol-1-yl)-2-(4-morpholin-4-yl-6-thioxo-1,6-dihydropyrimidin-2-yl)ethanone]: the IC50 (Homo sapiens, PC-3, PC3 cells) was found to be 8 nM. Take `C[C@@H]1Cc2ccccc2N1C(=O)Cc1nc(N2CCOCC2)c(F)c(=O)[nH]1` [Example 4a, 5-fluoro-2-{2-[(2R)-2-methyl-2,3-dihydro-1H-indol-1-yl]-2-oxoethyl}-6-(morpholin-4-yl)pyrimidin-4(3H)-one]: the IC50 (Homo sapiens, PC-3, PC3 cells) is 503 nM. Compound `Cn1c(CC(=O)N2CC(C)(C)c3c(Cl)cccc32)nc(N2CCOCC2)cc1=O` [Example 4c, 2-[2-(4-chloro-3,3-dimethyl-2,3-dihydro-1H-indol-1-yl)-2-oxoethyl]-3-methyl-6-(morpholin-4-yl)pyrimidin-4(3H)-one] showed an IC50 (Homo sapiens, PC-3, PC3 cells) of 35 nM. Compound `Cn1c(CC(=O)N2CCc3c2cccc3C(F)(F)F)nc(N2CCOCC2)cc1=O` [Example 4d, 3-methyl-6-(morpholin-4-yl)-2-{2-oxo-2-[4-(trifluoromethyl)-2,3-dihydro-1H-indol-1-yl]ethyl}pyrimidin-4(3H)-one] came in with an IC50 (Homo sapiens, PC-3, PC3 cells) of 63 nM. For `C[C@H]1Cc2ccccc2N1C(=O)Cc1nc(N2CCOCC2)cc(=S)n1C` [Example 4e, 1-((S)-2-methyl-2,3-dihydroindol-1-yl)-2-(1-methyl-4-morpholin-4-yl-6-thioxo-1,6-dihydropyrimidin-2-yl)ethanone], 41 nM corresponded to half-maximal inhibition (Homo sapiens, PC-3, PC3 cells) (IC50). `C[C@H]1Cc2ccccc2N1C(=O)Cc1nc(N2CCOCC2)c(F)c(=O)[nH]1` [Example 5a, 5-fluoro-2-{2-[(2S)-2-methyl-2,3-dihydro-1H-indol-1-yl]-2-oxoethyl}-6-(morpholin-4-yl)pyrimidin-4(3H)-one]: for the setting “Homo sapiens, PC-3, PC3 cells”, the IC50 is 15 nM. In turn, `CC1(C)CN(C(=O)Cc2nc(N3CCOCC3)cc(=O)[nH]2)c2cccc(Cl)c21` [Example 5c, 2-[2-(4-chloro-3,3-dimethyl-2,3-dihydro-1H-indol-1-yl)-2-oxoethyl]-6-(morpholin-4-yl)pyrimidin-4(3H)-one] displayed a half-maximal inhibitory concentration (IC50) (Homo sapiens, PC-3, PC3 cells) of 14 nM. Turning to `O=C(Cc1nc(N2CCOCC2)cc(=O)[nH]1)N1CCc2c1cccc2C(F)(F)F` [Example 5d, 6-(morpholin-4-yl)-2-{2-oxo-2-[4-(trifluoromethyl)-2,3-dihydro-1H-indol-1-yl]ethyl}pyrimidin-4(3H)-one], where the note is “Homo sapiens, PC-3, PC3 cells”, the IC50 stood at 9 nM. The compound `C[C@@H]1Cc2ccccc2N1C(=O)Cc1nc(N2CCOCC2)cc(=S)n1C` [Example 5e, 1-((R)-2-methyl-2,3-dihydroindol-1-yl)-2-(1-methyl-4-morpholin-4-yl-6-thioxo-1,6-dihydropyrimidin-2-yl)ethanone] displayed an IC50 (Homo sapiens, PC-3, PC3 cells) of 71 nM. In turn, `CC1Cc2cc(F)ccc2N1C(=O)Cc1nc(N2CCOCC2)c(F)c(=O)[nH]1` (stereo not drawn) [Example 6a, 5-fluoro-2-[2-((+)-5-fluoro-2-methyl-2,3-dihydroindol-1-yl)-2-oxoethyl]-6-morpholin-4-yl-3H-pyrimidin-4-one] yielded an IC50 (PC3 cells) of 10 nM.

With `O=C(Cc1nc(N2CCOC(CF)C2)cc(=O)[nH]1)N1CCc2c(F)cccc21` (stereo not drawn) [Example 6b, 2-[2-(4-fluoro-2,3-dihydroindol-1-yl)-2-oxoethyl]-6-(2-fluoromethylmorpholin-4-yl)-3H-pyrimidin-4-one], the IC50 (PC3 cells) is 58 nM. In the case of `CC1Cc2c(O)cccc2N1C(=O)Cc1nc(N2CCOCC2)cc(=O)[nH]1` (stereo not drawn) [Example 6c, 2-[2-(4-hydroxy-2-methyl-2,3-dihydro-1H-indol-1-yl)-2-oxoethyl]-6-(morpholin-4-yl)pyrimidin-4(3H)-one], half-maximal inhibition (PC3 cells) (IC50) required 24 nM. `COc1ccccc1-c1cccc2c1CCN2C(=O)Cc1nc(N2CCOCC2)cc(=O)[nH]1` [Example 6d, 2-{2-[4-(2-methoxyphenyl)-2,3-dihydro-1H-indol-1-yl]-2-oxoethyl}-6-(morpholin-4-yl)pyrimidin-4(3H)-one]: the IC50 (Homo sapiens, PC-3, PC3 cells) is 32 nM. `Cn1c(CC(=O)N2CCc3c(F)cccc32)nc(N2CCOCC2)cc1=S` [Example 6e, 1-(4-fluoro-2,3-dihydroindol-1-yl)-2-(1-methyl-4-morpholin-4-yl-6-thioxo-1,6-dihydropyrimidin-2-yl)ethanone] came in with an IC50 (Homo sapiens, PC-3, PC3 cells) of 31 nM. Compound `CC1Cc2cc(F)ccc2N1C(=O)Cc1nc(N2CCOCC2)c(F)c(=O)[nH]1` (stereo not drawn) [Example 7a, 5-fluoro-2-[2-((−)-5-fluoro-2-methyl-2,3-dihydroindol-1-yl)-2-oxoethyl]-6-morpholin-4-yl-3H-pyrimidin-4-one] gave a 50% inhibitory concentration (IC50) (PC3 cells) of 3 nM. Under “Homo sapiens, PC-3, PC3 cells”, `Cn1c(CC(=O)N2CC(C)(C)c3c(F)cccc32)nc(N2CCOCC2)cc1=O` [Example 7c, 2-[2-(4-fluoro-3,3-dimethyl-2,3-dihydro-1H-indol-1-yl)-2-oxoethyl]-3-methyl-6-(morpholin-4-yl)pyrimidin-4(3H)-one] had an IC50 of 45 nM. With `CCCN1CCCC(c2cccc3c2CCN3C(=O)Cc2nc(N3CCOCC3)cc(=O)[nH]2)C1` (stereo not drawn) [Example 7d, 6-(morpholin-4-yl)-2-{2-oxo-2-[4-(1-propylpiperidin-3-yl)-2,3-dihydro-4H-indol-1-yl]ethyl}pyrimidin-4(3H)-one], the half-inhibitory concentration (IC50) (Homo sapiens, PC-3, PC3 cells) turned out to be 102 nM.

Compound `Cn1c(CC(=O)N2CCc3c(Cl)cccc32)nc(N2CCOCC2)cc1=S` [Example 7e, 1-(4-chloro-2,3-dihydroindol-1-yl)-2-(1-methyl-4-morpholin-4-yl-6-thioxo-1,6-dihydropyrimidin-2-yl)ethanone] returned an IC50 (Homo sapiens, PC-3, PC3 cells) of 33 nM. As to `C[C@H]1Cc2ccccc2N1C(=O)Cc1nc(N2CCOCC2)c(F)c(=O)n1C` [Example 8a, 5-fluoro-3-methyl-2-{2-[(2S)-2-methyl-2,3-dihydro-1H-indol-1-yl]-2-oxoethyl}-6-(morpholin-4-yl)pyrimidin-4(3H)-one], under “Homo sapiens, PC-3, PC3 cells”, the IC50 is 107 nM. Take `CC1CN(c2cc(=O)[nH]c(CC(=O)N3CCc4c(F)cccc43)n2)CCO1` (stereo not drawn) [Example 8b, 2-[2-(4-fluoro-2,3-dihydroindol-1-yl)-2-oxoethyl]-6-(2-methylmorpholin-4-yl)-3H-pyrimidin-4-one]: the IC50 (PC3 cells) is 18 nM. `CC1(C)CN(C(=O)Cc2nc(N3CCOCC3)cc(=O)[nH]2)c2cccc(F)c21` [Example 8c, 2-[2-(4-fluoro-3,3-dimethyl-2,3-dihydro-1H-indol-1-yl)-2-oxoethyl]-6-(morpholin-4-yl)pyrimidin-4(3H)-one] had an IC50 (Homo sapiens, PC-3, PC3 cells) of 52 nM. For the setting “Homo sapiens, PC-3, PC3 cells”, `Cn1c(CC(=O)N2CCc3c(OC(F)F)cccc32)nc(N2CCOCC2)cc1=O` [Example 8d, 2-{2-[4-(difluoromethoxy)-2,3-dihydro-1H-indol-1-yl]-2-oxoethyl}-3-methyl-6-(morpholin-4-yl)pyrimidin-4(3H)-one] registered an IC50 of 60 nM. `CC1Cc2c(ccc(F)c2F)N1C(=O)Cc1nc(N2CCOCC2)c(F)c(=S)[nH]1` (stereo not drawn) [Example 8e, 1-((+)-4,5-Difluoro-2-methyl-2,3-dihydroindol-1-yl)-2-(5-fluoro-4-morpholin-4-yl-6-thioxo-1,6-dihydropyrimidin-2-yl)ethanone] yielded an IC50 (Homo sapiens, PC-3, PC3 cells) of 11 nM.

With `C[C@@H]1Cc2ccccc2N1C(=O)Cc1nc(N2CCOCC2)c(F)c(=O)n1C` [Example 9a, 5-fluoro-3-methyl-2-{2-[(2R)-2-methyl-2,3-dihydro-1H-indol-1-yl]-2-oxoethyl}-6-(morpholin-4-yl)pyrimidin-4(3H)-one], where the note is “Homo sapiens, PC-3, PC3 cells”, 120 nM corresponded to half-maximal inhibition (IC50). On the same count and under the same terms, under `O=C(Cc1nc(N2CCOCC2)cc(=O)[nH]1)N1CCc2c(OC(F)F)cccc21` [Example 9d, 2-{2-[4-(difluoromethoxy)-2,3-dihydro-1H-indol-1-yl]-2-oxoethyl}-6-(morpholin-4-yl)pyrimidin-4(3H)-one] stands 44 nM; under `CC1Cc2c(ccc(F)c2F)N1C(=S)Cc1nc(N2CCOCC2)c(F)c(=S)[nH]1` (stereo not drawn) [Example 9e, 2-[2-((+)-4,5-Difluoro-2-methyl-2,3-dihydroindol-1-yl)-2-thioxoethyl]-5-fluoro-6-morpholin-4-yl-3H-pyrimidine-4-thione], 1 nM. For `CC1Cc2c(F)cccc2N1C(=O)Cc1nc(N2CCOCC2)c(F)c(=O)[nH]1` (stereo not drawn) [Example 10a, 5-fluoro-2-[2-((+)-2-methyl-4-fluoro-2,3-dihydroindol-1-yl)-2-oxoethyl]-6-morpholin-4-yl-3H-pyrimidin-4-one], inhibition (PC3 cells) was half-maximal at 116 nM (IC50). Regarding `O=C(Cc1nc(N2CCOCC2)cc(=O)[nH]1)N1CCc2c(-c3ccncc3)cccc21` [Example 10d, 6-(morpholin-4-yl)-2-{2-oxo-2-[4-(pyridin-4-yl)-2,3-dihydro-1H-indol-1-yl]ethyl}pyrimidin-4(3H)-one], the IC50 (Homo sapiens, PC-3, PC3 cells) turned out to be 94 nM. Compound `C[C@H]1Cc2ccccc2N1C(=O)Cc1nc(N2CCOCC2)c(F)c(=S)[nH]1` [Example 10e, 2-(5-fluoro-4-morpholin-4-yl-6-thioxo-1,6-dihydropyrimidin-2-yl)-1-((S)-2-methyl-2,3-dihydroindol-1-yl)ethanone] came in with an IC50 (Homo sapiens, PC-3, PC3 cells) of 221 nM. Turning to `CC1Cc2c(F)cccc2N1C(=O)Cc1nc(N2CCOCC2)c(F)c(=O)[nH]1` (stereo not drawn) [Example 11a, 5-fluoro-2-[2-((−)-2-methyl-4-fluoro-2,3-dihydroindol-1-yl)-2-oxoethyl]-6-morpholin-4-yl-3H-pyrimidin-4-one], the IC50 (PC3 cells) was found to be 24 nM. In turn, `O=C(Cc1nc(N2CCOC3CCCC32)cc(=O)[nH]1)N1CCc2c(F)cccc21` (stereo not drawn) [Example 11b, 2-[2-(4-fluoro-2,3-dihydroindol-1-yl)-2-oxoethyl]-6-(hexahydrocyclopenta[1,4]oxazin-4-yl)-3H-pyrimidin-4-one] gave an IC50 (Homo sapiens, PC-3, PC3 cells) of 12 nM. Where the note is “Homo sapiens, PC-3, PC3 cells”, `CN1CCC2(CC1)CN(C(=O)Cc1nc(N3CCOCC3)cc(=O)[nH]1)c1ccccc12` [Example 11d, 2-[2-(1′-methylspiro[indole-3,4′-piperidin]-1(2H)-yl)-2-oxoethyl]-6-(morpholin-4-yl)pyrimidin-4(3H)-one] came in with an IC50 of 26 nM.

Source of the values: US9133168B2, “Pyrimidine derivatives, preparation thereof, and pharmaceutical use thereof as akt(pkb) phosphorylation inhibitors” (SANOFI, priority 2010, dated 2015).
